# Results as given in patent US12616706B2, “Compositions and methods of use comprising substances with neural plasticity actions administered at non-psychedelic/psychotomimetic dosages and formulations” (Arbormentis LLC, priority 2019, dated 2026).
# Like-named read-outs stand apart in the source and are kept apart here.
# Experiments:
# [1] = psilocybin 10, 20, 30 mg; cited from earlier work
# [2] = test system: Western Diet fed rats; assay: Locomotion Activity Test (LMA), WD rats; format: in vivo, rat; settings: chronic (15 day) low dose 0.05 mg/Kg
# Method: (§1) In order to ascertain whether the chronic administration of low dose psilocybin alters behavior in WD fed rats, the present inventors performed the Locomotion Activity Test (LMA) before and after the psilocybin treatment (see FIGS. 7A-7C). This test has the aim of assessing spontaneous locomotor activity in laboratory animals. This test is performed in a gray arena (open field) exposed to light of regulated intensity (24 and 30 lux), avoiding light-shadow zones within the perimeter in which the experiment takes place. Along the base of the open field, 4 standard sized squares have been drawn, clearly visible even in the dark and large enough to allow the animal to remain inside them in all its length. The LMA test has been preceded by one hour of habituation, at the end of which the rat was inserted inside the open field, in one of the previously designed squares. The movements and behaviors in reaction to the environment were then recorded for 10 minutes.
# In the LMA test, three fundamental aspects were assessed: 1. the number of crossings, i.e., the number of crossings made by the animal from one square to another, passing the line defining it with both legs. This value gives an indication of the distance traveled by the animal during the test and of its locomotor activity; 2. the number of rearings, i.e, the number of times the animal lifts up on the two posterior legs. […]
# [3] = test system: Western Diet fed rats; assay: Liver histology (hematoxylin-eosin), hepatic steatosis; settings: WD rats, 0.05 mg/kg 15 days; median (range in next column); WD alone 15
# [4] = test system: Ki67 positive cells in the subventricular zone; assay: Neurogenesis in SVZ, Ki67 positive cells; format: in vivo, rat; settings: WD rats, 0.05 mg/Kg gastric gavage 15 days; WD 2722±225, SD 4601±17
# Method: Methods: To perform immunohistochemistry, rats were euthanized and then perfused with 0.9% saline followed by 4% paraformaldehyde (PFA) in 1× phosphate saline buffer (PBS) (rats n tot=8, n=2 for each condition). Rats brains were promptly dissected and then post-fixed in 4% PFA for 48 hours. Brains were embedded in 2.5% agarose (Sigma-Aldrich) and then sectioned in sagittal sections (40 μm thick) at the vibratome (Vibratome VT1000S, Leica). Sagittal brain sections including the subventricular zone, were treated with a blocking solution of 10% normal goat serum (Jackson ImmunoResearch) in 1×PBS for 1 hour and then stained with rabbit anti-Ki67 monoclonal antibody (Abcam, AB 16667) (1:200) overnight. […] Brain sections were mounted with Aqua-Poly/Mount (Polysciences). Images of the sagittal sections containing the subventricular zone were acquired at the confocal microscope (Zeiss LSM 700) equipped with an EC Plan-Neofluar 20×/0.50 M27 objective (Zeiss). Ki67 positive cells were counted along the lateral wall of the lateral ventricles in rat brain sagittal sections, using ImageJ software (RRID: nif-000030467).
# [5] = parameters: AUC: unit not given beside the values; settings: cited from earlier work
# [6] = Blood glucose after 2-hours fasting, mice; format: in vivo, mouse; settings: 0.05 mg/kg daily
# Method: (§2) Mice were fed with standard diet and fructose (30% w/v in drinking water) was added to their diet 4 days before randomization.
# Before sacrifice, the present inventors measured the blood glucose concentration of the mice after a 2-hours fasting.
# [7] = test system: NMDAR2A; assay: NMDAR2A protein expression in ARPE-19 cells (immunofluorescence); format: cell-based; settings: chronic treatment with psilocin carbamate for 96 hours
# Method: (§3) First, the present inventors assessed the expression of three NMDAR subunits (NMDAR1, NMDAR2A, NMDAR2B) and two 5-HT2 subtypes (5-HT2A, 5-HT2C) by immunofluorescence coupled to confocal microscopy. 7,500 cells/well were plated in a 24-well plate on sterile glass coverslips. The next day, the immunofluorescence analysis was performed. The following primary antibodies were used: anti-NMDAR1A (Abcam, ab68144), NMDAR2A (Bioss, bs-3507R-TR), NMDAR2B (Bioss, bs-0222R-TR), 5-HT2A (Bioss, bs-12049R), 5-HT2C (Bioss, 2959R), and the secondary antibody goat anti-rabbit IgG (GeneTex, GTX213110-04). The images of the immunostained cells were acquired by means of a confocal microscope Zeiss LSM 800, using a 63× magnification and can be seen in FIGS. 9A-9E. ImageJ software was used to quantify the intensity of the fluorescent signal.
# (§4) 7,500 cells/well were plated in a 24-well plate on sterile glass coverslips. […] After 6 days an immunofluorescence analysis coupled to confocal microscopy was performed with the primary and secondary antibodies described above.
# [8] = test system: synapsin 1; assay: Synapsin 1 protein expression in lateral cortex (Western blot); format: in vivo, mouse; settings: adult mice; not significant
# Method: (§5) Mice were euthanized by cervical dislocation. Immediately after the sample, fresh tissues were cut isolating 4 brain regions (cerebellum, lateral cortex, olfactory bulb, and the remaining brain), quickly collected and put in cryovials in liquid nitrogen and then kept at −80° C.
# (§6) Brain tissues were lysed in RIPA lysis buffer (Invitrogen) and 1% (v/v) protease and phosphatase inhibitor cocktail (Sigma). Proteins were extracted by centrifugation at 14000 rpm at 4° C. for 30 minutes. Bicinchoninic Acid Assay (BCA) kit (1113 catalog #23225 Thermo-Scientific) was used to determine the protein concentration following the manufacturer's instructions. Western blot analyses to determine NMDAR 1 (primary antibody: Abcam, ab68144), PSD95 (Bioss, bs-0179R-TR), p70 (Bioss, bs-3498R-TR) and synapsin 1 (Bioss, bs-3501 R-TR) protein expression were performed using 30 μg per lane of nuclear or lateral cortex lysates. SDS-PAGE was performed on 8% polyacrylamide gels in reducing-denaturing condition and proteins were transferred to a 0.45 μm nitrocellulose membrane (BioRad Laboratories). Signal intensity of immunoreactive bands was analyzed by the Quantity One software (Bio-Rad Laboratories S.r.l.) and was normalized to that of the loading control GAPDH.
# [9] = test system: p70; assay: p70 protein expression in lateral cortex (Western blot); format: in vivo, mouse; settings: not detected in adult mice
# Method: as §5, §6
# [10] = test system: c57BL/6 male mice; assay: Locomotion Activity Test (LMA), mice; format: in vivo, mouse; settings: chronic (14 day) low dose 0.05 mg/Kg
# Method: In order to ascertain whether the chronic administration of low dose psilocin-carbamate alters behavior in tested mice, the present inventors performed the Locomotion Activity Test (LMA), the Novelty Suppressed Feeding (NSF) test and the olfactory habitation/dishabituation test before and after the psilocin-carbamate treatment.
# as §1, with “LMA” for “In order to ascertain whether the chronic administration of low dose psilocybin alters behavior in WD fed rats, the present inventors performed the Locomotion Activity Test (LMA) before and after the psilocybin treatment (see FIGS. 7A-7C). This test”
# Three fundamental aspects were assessed: 1. the number of crossings, i.e., the number of crossings made by the animal from one square to another, passing the line defining it with both legs. […]
# [11] = test system: PSD95; assay: PSD95 protein expression in lateral cortex (Western blot); format: in vivo, mouse; settings: not significant
# Method: as §5, §6
# [12] = test system: NMDAR2B; assay: NMDAR2B protein expression in ARPE-19 cells (immunofluorescence); format: cell-based; settings: chronic treatment with psilocin carbamate for 96 hours
# Method: as §3, §4
# [13] = test system: c57BL/6 male mice; assay: Toxicity and tolerability observation, high fructose mice; format: in vivo, mouse; settings: young
# Method: as §2
# During the experiment, the animals were carefully monitored every day for a period not exceeding the maximum experimental endpoints. Access to water (30% w/v fructose) and food ad libitum was allowed. No obvious clinical symptoms were observed during the experimental period.
# [14] = Body and liver weight at sacrifice, mice; format: in vivo, mouse; settings: 0.05 mg/kg daily
# Method: as §2
# [15] = test system: NMDAR1; assay: NMDAR1 protein expression in lateral cortex (Western blot); format: in vivo, mouse; settings: 0.05 mg/kg daily
# Method: as §5, §6
smiles,measurement,setting,value
CN(C)CCc1c[nH]c2cccc(OP(=O)(O)O)c12 [psilocybin],"Psychomotor performance, working memory, episodic memory, associative learning, visual perception",[1],dose-dependent negative effects
same,Psychedelic behavioral effects,[2],no evidence of psychedelic behavioral effects
same,% Hepatic macrovescicular steatosis,[3],5%
same,"New cells (Ki67 positive) in SVZ, n",[4],3404±199
same,AUC,[5]; 1 mg IV psilocybin,240+−55
same,Cmax,[5]; 1 mg IV psilocybin,12.9+−5.6 ng/ml
same,AUC,[5]; oral psilocybin 10-20 mg,1963+−659
same,Cmax,[5]; oral psilocybin 10-20 mg,8.2+−2.8 ng/ml
same,Tmax,[5]; oral psilocybin 10-20 mg,105+−37 min
CC[C@H](C)[C@H](NC(=O)Oc1cccc2[nH]cc(CCN(C)C)c12)C(=O)O [psilocin-carbamate],Blood glucose control,[6]; mice,no effect
same,Blood glucose concentration,[6]; old mice,tendency towards a lower blood glucose concentration
same,NMDAR2A expression,[7],reduction
same,"Synapsin 1 protein expression, lateral cortex",[8],tended to increase
same,"p70 protein expression, lateral cortex",[9],no significant differences
same,Psychedelic behavioral effects,[10],no evidence of psychedelic behavioral effects
same,"PSD95 protein expression, lateral cortex","[11]; adult mice, tendency",decrease
same,"PSD95 protein expression, lateral cortex",[11]; young mice,tended to increase
same,NMDAR2B expression,[12],reduction
same,Safety and tolerability,"[13]; 0.05 mg/kg daily for 14 days, adult and old mice",safe and well-tolerated
same,Signs of toxicity and mortality,"[13]; adult, old mice, 0.05 mg/kg gastric gavage, 14 days",No signs of toxicity and no mortality
same,Liver weight at sacrifice,[14]; adult mice,decrease
same,Body weight at sacrifice,"[14]; adult mice, p<0.05",decrease
same,Body and liver weight,[14]; young mice,no effect
same,"NMDAR1 protein expression, lateral cortex",[15]; adult mice,tended to decrease
same,"NMDAR1 protein expression, lateral cortex",[15]; young and old mice,tended to increase
